Experimental findings from US7846928B2, “Substituted pyrazolopyridines and salts thereof, pharmaceutical compositions comprising same, methods of preparing same and uses of same” (Bayer Schering Pharma AG, priority 2006, dated 2010) are described below.

pIC50: −log10 of the molar value.

Data set [1] deals with T1, Tie2 (Homo sapiens, UniProt Q02763). Kind of data set: Tie-2-Kinase HTRF-Assay without kinase preactivation (assay 2). The class given is biochemical. Further details: fusion protein of GST and the intracellular domains of Tie-2; GST; made in house; host or cells: insect cells (Hi-5). The conditions noted are these: GST-Tie-2 without preactivation, 10 μM ATP; pIC50 = -log IC50 molar. An excerpt: Tie2-inhibitory activity of compounds of the present invention was quantified employing two Tie2 HTRF assay as described in the following paragraphs.
A recombinant fusion protein of GST and the intracellular domains of Tie-2, expressed in insect cells (Hi-5) and purified by Glutathion-Sepharose affinity chromatography was used as kinase. Alternatively, commercially available GST-Tie2-fusion protein (Upstate Biotechnology, Dundee, Scotland) can be used As substrate for the kinase reaction the biotinylated peptide biotin-Ahx-EPKDDAYPLYSDFG (C-terminus in amid form) was used which can be purchased e.g. from the company Biosynthan GmbH (Berlin-Buch, Germany). Detection of phosphorylated product is achieved specifically by a trimeric detection complex consisting of the phosphorylated substrate, streptavidin-XLent (SA-XLent) which binds to biotin, and Europium Cryptate-labeled anti-phosphotyrosine antibody PT66 which binds to phosphorylated tyrosine.
Tie-2 (3.5 ng/measurement point) was incubated for 60 min at 22° C. in the presence of 10 μM adenosine-tri-phosphate (ATP) and 1 μM substrate peptide (biotin-Ahx-EPKDDAYPLYSDFG-NH2) with different concentrations of test compounds (0 μM and concentrations in the range 0.001-20 μM) in 5 μl assay buffer [50 mM Hepes/NaOH pH 7, 10 mM MgCl2, 0.5 mM MnCl2, 1.0 mM dithiothreitol, 0.01% NP40, protease inhibitor mixture (“Complete w/o EDTA” from Roche, 1 tablet per 2.5 ml), 1% (v/v) dimethylsulfoxide]. The reaction was stopped by the addition of 5 μl of an aqueous buffer (25 mM Hepes/NaOH pH 7.5, 0.28% (w/v) bovine serum albumin) containing EDTA (90 mM) and the HTRF (Homogeneous Time Resolved Fluorescence) detection reagents streptavidine-XLent (0.2 μM, from Cis Biointernational, Marcoule, France) and PT66-Eu-Chelate (0.3 ng/μl; a europium-chelate labelled anti-phospho-tyrosine antibody from Perkin Elmer).
The resulting mixture was incubated 1 h at 22° C. to allow the binding of the biotinylated phosphorylated peptide to the streptavidine-XLent and the PT66-Eu-Chelate. Subsequently the amount of phosphorylated substrate peptide was evaluated by measurement of the resonance energy transfer from the PT66-Eu-Chelate to the streptavidine-XLent. Therefore, the fluorescence emissions at 620 nm and 665 nm after excitation at 350 nm was measured in a HTRF reader, e.g. a Rubystar (BMG Labtechnologies, Offenburg, Germany) or a Viewlux (Perkin-Elmer). The ratio of the emissions at 665 nm and at […] was taken as the measure for the amount of phosphorylated substrate peptide. The data were normalised (enzyme reaction without inhibitor=0% inhibition, all other assay components but no enzyme=100% inhibition) and IC50 values were calculated by a 4 parameter fit using an inhouse software.
Target sequence in this assay (Q02763 770-1124 limits assumed): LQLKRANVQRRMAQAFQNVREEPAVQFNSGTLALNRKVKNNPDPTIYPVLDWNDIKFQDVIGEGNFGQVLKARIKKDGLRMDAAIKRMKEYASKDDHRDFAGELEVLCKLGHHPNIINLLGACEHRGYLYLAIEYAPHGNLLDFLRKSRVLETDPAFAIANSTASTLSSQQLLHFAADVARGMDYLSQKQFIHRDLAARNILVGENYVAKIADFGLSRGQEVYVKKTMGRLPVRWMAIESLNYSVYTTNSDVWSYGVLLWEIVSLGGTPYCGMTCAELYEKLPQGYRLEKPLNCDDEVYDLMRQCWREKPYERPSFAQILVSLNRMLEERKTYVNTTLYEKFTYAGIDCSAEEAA
In general terms: TR-FRET usually uses a lanthanide donor and a delayed reading to cut background.

The target in data set [2] is T1, Tie2. In words: Tie2 ELISA assay (assay 1): cellular Tie2 autophosphorylation in Tie2-transfected CHO cells stimulated by angiopoietin-2. Details: expressed in transfected cells; host or cells: CHO (DHFR-deficient), stably transfected: CHO Tie2/DHFR. Conditions: CHO Tie2/DHFR cells, Ang2 stimulated, Tie2 autophosphorylation sandwich-ELISA; pIC50 = -log IC50 molar; read-out: Tie 2 activity (assay 1). The class given is cell-based. Here is the method: Cellular activity of compounds of the present invention as inhibitors of Tie2 kinase activity was measured employing a Tie2 ELISA assay as described in the following paragraphs. Herein CHO cell-cultures, which are stably transfected by known techniques with Tie2 using DHFR deficiency as selection marker, are stimulated by angiopoietin-2. The specific autophosphorylation of Tie2 receptors is quantified with a sandwich-ELISA using anti-Tie2 antibodies for catch and anti-phosphotyrosine antibodies coupled to HRP for detection.
• 96 well tissue culture plate, sterile, Greiner • 96 well FluoroNunc plate MaxiSorp Surface C, Nunc • 96 well plate polypropylene for compound dilution in DMSO • CHO Tie2/DHFR (transfected cells) • PBS−; PBS++, DMSO • MEM alpha Medium with Glutamax-I without Ribonucleosides and • Deoxyribonucleosides (Gibco #32561-029) • with 10% FCS after dialysis! and 1% PenStrep • Lysis buffer: 1 Tablet “Complete” protease inhibitor • 1 cap Vanadate (1 mL>40 mg/mL; working solution 2 mM) • ad 50 mL with Duschl-Puffer • pH 7.6 • Anti-Tie2-antibody 1:425 in Coating Buffer pH 9.6 • Stock solution: 1.275 mg/mL>working: 3 μg/mL • PBST: 2 bottles PBS(10×)+10 ml Tween, fill up with VE-water • RotiBlock 1:10 in VE-water • Anti-Phosphotyrosine HRP-Conjugated 1:10000 in 3% TopBlock • 3% TopBlock in PBST • BM Chemiluminescence ELISA Substrate (POD) • solution B1:100 solution A • SF9 cell culture medium • Ang2-Fc in SF9 cell culture medium Cell Experiment: • Dispense 5×10^4 cells/well/98 μL in 96 well tissue culture plate • Incubate at 37° C./5% CO2 • After 24 h add compounds according to desired concentrations • Add also to control and stimulated values without compounds 2 μL DMSO • And mix for a few min at room temperature • Add 100 μL Ang2-Fc to all wells except control, which receives insect medium • Incubate 20 min at 37° C. • Wash 3× with PBS++ • Add 100 μl Lysis buffer/well and shake a couple of min at room temperature • Store lysates at 20° C. before utilizing for the ELISA Performance of Sandwich-ELISA • Coat 96 well FluoroNunc Plate MaxiSorp Surface C with anti-Tie2 mAb • 1:425 in Coating buffer pH 9.6; 100 μL/well overnight at 4° C. • Wash 2× with PBST • Block plates with 250 μL/well RotiBlock 1:10 in VE-water • Incubate for 2 h at room temperature or overnight at 4° C. shaking • Wash 2× in PBST • Add thawed lysates to wells and incubate overnight shaking at 4° C. • Wash 2× with PBST • Add 100 μL/well anti-Phosphotyrosine HRP-Conjugated 1:10000 in 3% • TopBlock (3% TopBlock in PBST) and incubate overnight under shaking • Wash 6× with PBST • Add 100 μL/well BM Chemiluminescence ELISA Substrate (POD) • solutions 1 und 2 (1:100) • Determine luminescence with the LumiCount. Assay 2: Tie-2-Kinase HTRF-Assay without Kinase Preactivation
Target sequence in this assay (Q02763 23-1124): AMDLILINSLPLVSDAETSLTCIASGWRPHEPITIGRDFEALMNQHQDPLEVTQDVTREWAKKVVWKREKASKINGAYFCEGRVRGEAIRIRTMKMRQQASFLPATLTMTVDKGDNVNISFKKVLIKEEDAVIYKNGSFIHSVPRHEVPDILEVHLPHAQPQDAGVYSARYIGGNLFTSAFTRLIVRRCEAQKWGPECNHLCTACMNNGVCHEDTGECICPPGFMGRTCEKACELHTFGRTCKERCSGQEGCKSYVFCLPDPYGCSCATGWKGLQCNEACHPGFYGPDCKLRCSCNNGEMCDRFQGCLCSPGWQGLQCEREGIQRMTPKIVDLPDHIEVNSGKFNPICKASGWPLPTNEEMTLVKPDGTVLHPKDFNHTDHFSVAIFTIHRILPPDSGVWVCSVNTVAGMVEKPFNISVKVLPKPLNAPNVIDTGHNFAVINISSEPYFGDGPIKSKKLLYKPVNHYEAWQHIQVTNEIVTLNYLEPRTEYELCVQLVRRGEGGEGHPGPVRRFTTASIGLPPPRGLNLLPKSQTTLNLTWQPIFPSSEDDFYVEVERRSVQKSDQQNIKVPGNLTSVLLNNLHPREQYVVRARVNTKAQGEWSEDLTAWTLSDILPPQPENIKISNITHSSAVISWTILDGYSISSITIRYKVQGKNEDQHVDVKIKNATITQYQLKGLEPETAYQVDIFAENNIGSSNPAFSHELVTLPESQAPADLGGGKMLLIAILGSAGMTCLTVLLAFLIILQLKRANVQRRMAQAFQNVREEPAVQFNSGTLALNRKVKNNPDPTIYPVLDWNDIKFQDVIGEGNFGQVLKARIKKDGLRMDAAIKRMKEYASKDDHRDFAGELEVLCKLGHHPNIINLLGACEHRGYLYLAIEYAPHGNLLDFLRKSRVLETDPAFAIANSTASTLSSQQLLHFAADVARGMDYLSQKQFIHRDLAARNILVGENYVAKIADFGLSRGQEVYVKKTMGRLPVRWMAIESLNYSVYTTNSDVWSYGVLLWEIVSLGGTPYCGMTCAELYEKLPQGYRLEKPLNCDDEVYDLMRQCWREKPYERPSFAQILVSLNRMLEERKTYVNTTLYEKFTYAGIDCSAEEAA

`CC(C)c1cc(-c2ccc(NC(=O)Nc3cccc(C(F)(F)F)c3)cc2)c2cnn(CCCN3CCOCC3)c2n1` [1.25, 1-{4-[6-Isopropyl-1-(3-morpholin-4-yl-propyl)-1H-pyrazolo[3,4-b]pyridin-4-yl]-phenyl}-3-(3-trifluoromethyl-phenyl)-urea]: the pIC50 is 5.00 to 6.00 against Tie2 [1] and above 6.30 at Tie2 [2]. Regarding `Cn1ncc2c(-c3ccc(NC(=O)Nc4cccc(C(F)(F)F)c4)cc3)cc(C3(C(=O)N4CCCC4)CC3)nc21` [1.27, 1-(4-{1-Methyl-6-[1-(pyrrolidine-1-carbonyl)-cyclopropyl]-1H-pyrazolo[3,4-b]pyridin-4-yl}-phenyl)-3-(3-trifluoromethyl-phenyl)-urea], the pIC50 against Tie2 [1] and at Tie2 [2] was above 6.30 throughout.

On to `Cc1cc(-c2ccc(NC(=O)Nc3cc(C(F)(F)F)ccc3N3CCCC3)cc2)c2cnn(C)c2n1` [2.8, 1-[4-(1,6-Dimethyl-1H-pyrazolo[3,4-b]pyridin-4-yl)-phenyl]-3-(2-pyrrolidin-1-yl-5-trifluoromethyl-phenyl)-urea], for which the melting point – broadly, the temperature of the solid-liquid transition – amounted to 236 °C.
